Source: patent US20240158446A1, “CYCLIC COMPOUND HAVING SELECTIVE INHIBITORY ACTION ON KRAS OVER HRAS AND NRAS” (CHUGAI SEIYAKU KABUSHIKI KAISHA, priority 2021, published 2024)
Where a SMILES comes first, the peptide text is derived from it. Bridges are numbered along the chain shown (N, C = ends). [ ]: non-standard residue; d: D form. The star is where a group is joined. hPhe(3-Cl-4-CF3) = N[C@@H](CCc1ccc(C(F)(F)F)c(Cl)c1)C(=O)O; NPrPhe(4-CF3) = CCCN[C@@H](Cc1ccc(C(F)(F)F)cc1)C(=O)O; NMeGly(cPent) = CN[C@H](C(=O)O)C1CCCC1; Ac4c(3,3-Me2) = CC1(C)CC(N)(C(=O)O)C1; NMeNva(3-Et) = CCC(CC)[C@H](NC)C(=O)O; NMeD = CN[C@@H](CC(=O)O)C(=O)O; NMeL = CN[C@@H](CC(C)C)C(=O)O; NMeNva = CCC[C@H](NC)C(=O)O; NMeAbu = CC[C@H](NC)C(=O)O; Morpholide = C1CN(*)CCO1; NMeA = CN[C@@H](C)C(=O)O; Aze = O=C(O)[C@@H]1CCN1; Ac4c = NC1(C(=O)O)CCC1; Sar = CNCC(=O)O

Key:
[1] = target: GDP-bound HRAS wild-type protein (Homo sapiens, UniProt P01112); experiment: Binding to HRAS by surface plasmon resonance (SPR), Single Cycle Kinetics; conditions: ratio of KD for GDP-bound HRAS wild-type protein to KD for KRAS, SPR
GDP-bound HRAS wild-type protein, sequence (P01112 whole entry): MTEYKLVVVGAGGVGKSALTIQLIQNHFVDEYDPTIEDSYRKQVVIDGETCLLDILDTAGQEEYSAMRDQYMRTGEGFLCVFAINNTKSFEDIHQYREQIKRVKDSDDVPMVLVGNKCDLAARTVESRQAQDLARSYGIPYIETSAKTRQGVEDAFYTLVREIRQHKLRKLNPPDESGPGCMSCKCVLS

[2] = target: GDP-bound NRAS wild-type protein (Homo sapiens, UniProt P01111); experiment: Binding to NRAS by surface plasmon resonance (SPR), Single Cycle Kinetics; conditions: ratio of KD for GDP-bound NRAS wild-type protein to KD for KRAS, SPR
GDP-bound NRAS wild-type protein, sequence (P01111 whole entry): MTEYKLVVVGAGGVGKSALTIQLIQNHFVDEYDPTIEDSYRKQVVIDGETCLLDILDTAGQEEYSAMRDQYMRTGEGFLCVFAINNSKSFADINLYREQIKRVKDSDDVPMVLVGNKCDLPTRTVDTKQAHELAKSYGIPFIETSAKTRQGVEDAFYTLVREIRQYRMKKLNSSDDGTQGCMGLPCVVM

[3] = test system: human lung cancer strain NCI-H441; experiment: cells; conditions: NCI-H441, 96 h, read-out: NCI-H441 IC50 (nM), NCI-H441 cell proliferation, 4 days, CellTiter-Glo;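 further: cell proliferation inhibition after four days measured by CellTiter-Glo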
[4] = target: GDP-bound KRAS wild-type protein (Homo sapiens, UniProt P01116); experiment: Binding to KRAS by surface plasmon resonance (SPR), Single Cycle Kinetics; conditions: SPR, Single Cycle Kinetics, GDP-bound KRAS wild-type protein; read-out: KRAS KD
GDP-bound KRAS wild-type protein, sequence (P01116 whole entry): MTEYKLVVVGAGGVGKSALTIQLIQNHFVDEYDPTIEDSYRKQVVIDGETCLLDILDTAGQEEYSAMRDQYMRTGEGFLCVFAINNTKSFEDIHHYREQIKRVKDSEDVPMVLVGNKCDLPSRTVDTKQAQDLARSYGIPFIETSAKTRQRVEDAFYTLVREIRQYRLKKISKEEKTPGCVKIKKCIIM

IC50 [3]	Kd [4]	Structure (SMILES)	HRAS/KRAS (KD ratio) [1]	NRAS/KRAS (KD ratio) [2]
57.8 nM	0.53 nM	CCCN1C(=O)CN(C)C(=O)CN(C)C(=O)[C@H]([C@@H](C)CC)NC(=O)[C@H](CC(C)C)N(C)C(=O)C[C@@H](C(=O)N2CCOCC2)N(C)C(=O)[C@H](C(CC)CC)N(C)C(=O)C2(CCC2)NC(=O)[C@@H]2CCCN2C(=O)[C@H](CCc2ccc(C(F)(F)F)c(Cl)c2)NC(=O)CN(C)C(=O)[C@@H]1Cc1ccc(C(F)(F)F)cc1 [PP1958] ([NMeL]I[Sar][Sar][NPrPhe(4-CF3)][Sar][hPhe(3-Cl-4-CF3)]P[Ac4c][NMeNva(3-Et)][NMeD]-Morpholide; lactam N-11)	B (a compound having 3 or more and less than 10 is denoted as B)	B (a compound having 3 or more and less than 10 is denoted as B)
5.2 nM	0.17 nM	CCO[C@@H]1C[C@H]2C(=O)NC3(CC(C)(C)C3)C(=O)N(C)[C@@H](C3CCCC3)C(=O)N(C)[C@H](C(=O)N(C)C)CC(=O)N(C)[C@@H](CC(C)C)C(=O)N[C@@H]([C@@H](C)CC)C(=O)N(C)CC(=O)N(C)[C@H]3C/C=C\CCN(C3=O)[C@@H](Cc3ccc(C(F)(F)F)cc3)C(=O)N(C)CC(=O)N[C@@H](CCc3cc(F)c(Cl)c(F)c3)C(=O)N2C1 [PP1761]	A (a compound having 10 or more and less than 20 is denoted as A)	A (a compound having 10 or more and less than 20 is denoted as A)
14.7 nM	0.55 nM	CCC[C@H]1C(=O)N[C@@H]([C@@H](C)CC)C(=O)N(C)[C@@H](C)C(=O)N2CC[C@H]2C(=O)N(CCC)[C@@H](Cc2ccc(C(F)(F)F)cc2)C(=O)N(C)CC(=O)N[C@@H](CCc2ccc(C(F)(F)F)c(Cl)c2)C(=O)N2CCC[C@H]2C(=O)NC2(CCC2)C(=O)N(C)[C@@H](C(CC)CC)C(=O)N(C)[C@H](C(=O)N2CCOCC2)CC(=O)N1C [PP1959] ([NMeNva]I[NMeA][Aze][NPrPhe(4-CF3)][Sar][hPhe(3-Cl-4-CF3)]P[Ac4c][NMeNva(3-Et)][NMeD]-Morpholide; lactam N-11)	B (a compound having 3 or more and less than 10 is denoted as B)	C (A compound having a KD ratio of 0.1 or more and less than 3 is denoted as C)
9.1 nM	0.18 nM	CCCN1C(=O)CN(C)C(=O)CN(C)C(=O)[C@H]([C@@H](C)OC)NC(=O)[C@H](CC(C)C)N(C)C(=O)C[C@@H](C(=O)N2CCOCC2)N(C)C(=O)[C@H](C2CCCC2)N(C)C(=O)C2(CC(C)(C)C2)NC(=O)[C@@H]2CCCN2C(=O)[C@H](CCc2ccc(C(F)(F)F)c(Cl)c2)NC(=O)CN(C)C(=O)[C@@H]1Cc1ccc(C(F)(F)F)cc1 [PP1963] ([NMeL]T(Me)[Sar][Sar][NPrPhe(4-CF3)][Sar][hPhe(3-Cl-4-CF3)]P[Ac4c(3,3-Me2)][NMeGly(cPent)][NMeD]-Morpholide; lactam N-11)	C (A compound having a KD ratio of 0.1 or more and less than 3 is denoted as C)	B (a compound having 3 or more and less than 10 is denoted as B)
2.3 nM	0.039 nM	CCO[C@@H]1C[C@H]2C(=O)NC3(CC(F)(F)C3)C(=O)N(C)[C@@H](C3CCCC3)C(=O)N(C)[C@H](C(=O)N(C)C)CC(=O)N(C)[C@@H](CC(C)C)C(=O)N[C@@H]([C@@H](C)CC)C(=O)N(C)CC(=O)N(C)[C@H]3C/C=C\CCN(C3=O)[C@@H](Cc3ccc(C(F)(F)F)cc3)C(=O)N(C)CC(=O)N[C@@H](CCc3cc(F)c(C(F)(F)F)c(F)c3)C(=O)N2C1 [PP1741]	B (a compound having 3 or more and less than 10 is denoted as B)	A (a compound having 10 or more and less than 20 is denoted as A)
12.3 nM	0.4 nM	CCC[C@H]1C(=O)N[C@@H]([C@@H](C)CC)C(=O)N(C)CC(=O)N(C)[C@H]2C/C=C\CCN(C2=O)[C@@H](Cc2ccc(C(F)(F)F)cc2)C(=O)N(C)CC(=O)N[C@@H](CCc2cc(F)c(C(F)(F)F)c(F)c2)C(=O)N(C)[C@@H](COC)C(=O)NC2(CC(C)(C)C2)C(=O)N(C)[C@@H](C2CCCC2)C(=O)N(C)[C@H](C(=O)N(C)C)CC(=O)N1C [PP1936]	A (a compound having 10 or more and less than 20 is denoted as A)	AA (a compound having 20 or more is denoted as AA)
61.9 nM	1.2 nM	CCO[C@@H]1C[C@H]2C(=O)NC3(CCC3)C(=O)N(C)[C@@H](C(CC)CC)C(=O)N3CCC[C@@H]3CC(=O)N(C)[C@@H](CC3CC3)C(=O)N[C@@H]([C@@H](C)CC)C(=O)N(C)CC(=O)N(C)[C@H]3C/C=C\CCN(C3=O)[C@@H](Cc3ccc(C(F)(F)F)cc3)C(=O)N(C)CC(=O)N[C@@H](CCc3cc(F)c(C(F)(F)F)c(F)c3)C(=O)N2C1 [PP1612]	B (a compound having 3 or more and less than 10 is denoted as B)	B (a compound having 3 or more and less than 10 is denoted as B)
32.8 nM	0.19 nM	CCCN1C(=O)CN(C)C(=O)CN(C)C(=O)[C@H]([C@@H](C)CC)NC(=O)[C@H](CC(C)C)N(C)C(=O)C[C@@H](C(=O)N2CCOCC2)N(C)C(=O)[C@H](C2CCCC2)N(C)C(=O)C2(CCC2)NC(=O)[C@H](CC)N(C)C(=O)[C@H](CCc2ccc(C(F)(F)F)c(Cl)c2)NC(=O)CN(C)C(=O)[C@@H]1Cc1ccc(C(F)(F)F)cc1 [PP1918] ([NMeL]I[Sar][Sar][NPrPhe(4-CF3)][Sar][hPhe(3-Cl-4-CF3)][NMeAbu][Ac4c][NMeGly(cPent)][NMeD]-Morpholide; lactam N-11)	C (A compound having a KD ratio of 0.1 or more and less than 3 is denoted as C)	B (a compound having 3 or more and less than 10 is denoted as B)
8.1 nM	0.061 nM	CCOC[C@H]1C(=O)N[C@@H]([C@@H](C)CC)C(=O)N(C)CC(=O)N(C)[C@H]2C/C=C\CCN(C2=O)[C@@H](Cc2ccc(C(F)(F)F)cc2)C(=O)N(C)CC(=O)N[C@@H](CCc2cc(F)c(C(F)(F)F)c(F)c2)C(=O)N2C[C@H](OCC)C[C@H]2C(=O)NC2(CC(C)(C)C2)C(=O)N(C)[C@@H](C2CCCC2)C(=O)N(C)[C@H](C(=O)N(C)CC)CC(=O)N1C [PP2032]	B (a compound having 3 or more and less than 10 is denoted as B)	A (a compound having 10 or more and less than 20 is denoted as A)
36.4 nM	0.13 nM	CCO[C@@H]1C[C@H]2C(=O)NC3(CCC3)C(=O)N(C)[C@@H](C3CCCC3)C(=O)N(C)[C@H](C(=O)N(C)CC)CC(=O)N(C)[C@@H](CC)C(=O)N[C@@H]([C@@H](C)CC)C(=O)N(C)CC(=O)N(C)[C@H]3C/C=C\CCN(C3=O)[C@@H](Cc3ccc(C)cc3)C(=O)N(C)CC(=O)N[C@@H](CCc3ccc(C(F)(F)F)c(OC)c3)C(=O)N2C1 [PP1869]	A (a compound having 10 or more and less than 20 is denoted as A)	A (a compound having 10 or more and less than 20 is denoted as A)
8.5 nM	0.075 nM	CCO[C@@H]1C[C@H]2C(=O)NC3(CC(C)(C)C3)C(=O)N(C)[C@@H](C3CCCC3)C(=O)N(C)[C@H](C(=O)N(C)C)CC(=O)N(C)[C@@H](CC)C(=O)N[C@@H]([C@@H](C)CC)C(=O)N(C)CC(=O)N(C)[C@H]3C/C=C\CCN(C3=O)[C@@H](Cc3ccc(C)cc3)C(=O)N(C)CC(=O)N[C@@H](CCc3ccc(C(F)(F)F)c(OC)c3)C(=O)N2C1 [PP1873]	B (a compound having 3 or more and less than 10 is denoted as B)	A (a compound having 10 or more and less than 20 is denoted as A)
13.2 nM	0.15 nM	CC[C@H](C)[C@@H]1NC(=O)[C@H](CCOC)N(C)C(=O)C[C@@H](C(=O)N(C)CC)N(C)C(=O)[C@H](C2CCCC2)N(C)C(=O)C2(CC(C)(C)C2)NC(=O)[C@@H]2C[C@H](C)CN2C(=O)[C@H](CCc2cc(F)c(C(F)(F)F)c(F)c2)NC(=O)CN(C)C(=O)[C@H](Cc2ccc(C(F)(F)F)cc2)N2CC/C=C\C[C@@H](C2=O)N(C)C(=O)CN(C)C1=O [PP1972]	A (a compound having 10 or more and less than 20 is denoted as A)	A (a compound having 10 or more and less than 20 is denoted as A)
22.4 nM	0.1 nM	CCCN(C)C(=O)[C@@H]1CC(=O)N(C)[C@@H](C2CC2)C(=O)N[C@@H]([C@@H](C)CC)C(=O)N(C)CC(=O)N(C)[C@H]2C/C=C\CCN(C2=O)[C@@H](Cc2ccc(C(F)(F)F)cc2)C(=O)N(C)CC(=O)N[C@@H](CCc2cc(F)c(C(F)(F)F)c(F)c2)C(=O)N2C[C@H](OCC)C[C@H]2C(=O)NC2(CCC2)C(=O)N(C)[C@@H](C2CCCC2)C(=O)N1C [PP1994]	A (a compound having 10 or more and less than 20 is denoted as A)	AA (a compound having 20 or more is denoted as AA)
23.5 nM	0.85 nM	CCC[C@H]1C(=O)N[C@@H]([C@@H](C)CC)C(=O)N[C@@H](C)C(=O)N(C)[C@H]2C/C=C\CCN(C2=O)[C@@H](Cc2ccc(C(F)(F)F)cc2)C(=O)N(C)CC(=O)N[C@@H](CCc2cc(F)c(C(F)(F)F)c(F)c2)C(=O)N2C[C@H](OCC)C[C@H]2C(=O)NC2(CC(C)(C)C2)C(=O)N(C)[C@@H](C2CCCC2)C(=O)N(C)[C@H](C(=O)N(C)C)CC(=O)N1C [PP1927]	A (a compound having 10 or more and less than 20 is denoted as A)	A (a compound having 10 or more and less than 20 is denoted as A)
